In patent US20240383875A1, “Benzimidazole Pyridine Derivatives” (Hoffmann-La Roche Inc., priority 2022, published 2024):

Experiments:
Type in all cases: biochemical
SIK1 = SIK1 (Homo sapiens, UniProt P57059); test: Enzymatic activity assay SIK1, RapidFire mass spectrometry (phosphorylation of CHK-peptide); conditions: RapidFire MS, inhibition of SIK1; read-out: SIK1 RF IC50
Outline: (§1)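 Human SIK1/2/3, 5/0.5/1.5 nM; 12.5 mM HEPES pH 7.0, 10 mM Mg acetate, 0.005% BSA. 30 min cpd pre-inc, + CHK-peptide (10 μM soln) + ATP (100 μM soln), 45 min RT. Formic acid stop; RF-MS phospho ratio; IC50.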

SIK2 = SIK2 (Homo sapiens, UniProt Q9H0K1); test: Enzymatic activity assay SIK2, RapidFire mass spectrometry (phosphorylation of CHK-peptide); conditions: RapidFire MS, inhibition of SIK2; read-out: SIK2 RF IC50
Outline: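 Read-out is the summed phospho-species fraction of CHK-peptide by RapidFire mass spectrometry, normalized between DMSO and 1 μM YKL-05-099. The reaction used 0.5 nM SIK2, 100 μM ATP and 10 μM peptide solutions in HEPES pH 7.0/10 mM magnesium acetate for 45 min at ambient temperature.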

SIK3 = SIK3 (Homo sapiens, UniProt Q9Y2K2); test: Enzymatic activity assay SIK3, RapidFire mass spectrometry (phosphorylation of CHK-peptide); conditions: RapidFire MS, inhibition of SIK3; read-out: SIK3 RF IC50
Outline: as §1

Sequence of SIK3 (Q9Y2K2 whole entry): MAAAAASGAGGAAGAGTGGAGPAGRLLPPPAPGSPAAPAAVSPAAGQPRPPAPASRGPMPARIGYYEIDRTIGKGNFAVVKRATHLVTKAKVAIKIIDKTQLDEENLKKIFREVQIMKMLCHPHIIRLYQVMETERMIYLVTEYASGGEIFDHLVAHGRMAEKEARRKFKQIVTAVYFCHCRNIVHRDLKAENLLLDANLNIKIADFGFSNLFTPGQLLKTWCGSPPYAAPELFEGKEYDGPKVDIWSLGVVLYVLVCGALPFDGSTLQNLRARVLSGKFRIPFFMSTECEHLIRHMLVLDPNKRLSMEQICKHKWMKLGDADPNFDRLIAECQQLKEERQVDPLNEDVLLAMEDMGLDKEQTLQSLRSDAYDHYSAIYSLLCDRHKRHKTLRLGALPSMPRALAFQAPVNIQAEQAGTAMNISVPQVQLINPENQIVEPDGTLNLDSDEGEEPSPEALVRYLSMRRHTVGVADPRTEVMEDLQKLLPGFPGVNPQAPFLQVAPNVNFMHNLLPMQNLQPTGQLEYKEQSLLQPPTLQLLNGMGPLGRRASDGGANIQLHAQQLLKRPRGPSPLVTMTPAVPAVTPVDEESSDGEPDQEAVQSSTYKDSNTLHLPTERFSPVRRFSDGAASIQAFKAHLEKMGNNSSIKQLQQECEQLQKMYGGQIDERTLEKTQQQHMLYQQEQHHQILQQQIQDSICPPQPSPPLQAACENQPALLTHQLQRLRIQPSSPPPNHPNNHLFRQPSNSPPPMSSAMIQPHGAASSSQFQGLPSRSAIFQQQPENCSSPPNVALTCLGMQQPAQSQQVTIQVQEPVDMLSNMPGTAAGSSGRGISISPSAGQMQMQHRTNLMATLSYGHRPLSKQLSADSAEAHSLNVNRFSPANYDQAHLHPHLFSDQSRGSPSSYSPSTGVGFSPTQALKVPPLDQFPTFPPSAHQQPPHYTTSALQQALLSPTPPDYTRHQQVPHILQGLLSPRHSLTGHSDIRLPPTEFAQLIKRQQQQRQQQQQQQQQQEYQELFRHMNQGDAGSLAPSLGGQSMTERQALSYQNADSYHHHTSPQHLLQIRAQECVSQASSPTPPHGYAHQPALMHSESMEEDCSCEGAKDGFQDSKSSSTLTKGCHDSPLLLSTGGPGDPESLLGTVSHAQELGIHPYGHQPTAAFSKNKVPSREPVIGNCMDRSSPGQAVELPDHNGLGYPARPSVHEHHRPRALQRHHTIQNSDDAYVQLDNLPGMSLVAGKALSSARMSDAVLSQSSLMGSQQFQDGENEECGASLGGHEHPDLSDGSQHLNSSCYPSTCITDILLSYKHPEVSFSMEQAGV
Sequence of SIK1 (P57059 whole entry): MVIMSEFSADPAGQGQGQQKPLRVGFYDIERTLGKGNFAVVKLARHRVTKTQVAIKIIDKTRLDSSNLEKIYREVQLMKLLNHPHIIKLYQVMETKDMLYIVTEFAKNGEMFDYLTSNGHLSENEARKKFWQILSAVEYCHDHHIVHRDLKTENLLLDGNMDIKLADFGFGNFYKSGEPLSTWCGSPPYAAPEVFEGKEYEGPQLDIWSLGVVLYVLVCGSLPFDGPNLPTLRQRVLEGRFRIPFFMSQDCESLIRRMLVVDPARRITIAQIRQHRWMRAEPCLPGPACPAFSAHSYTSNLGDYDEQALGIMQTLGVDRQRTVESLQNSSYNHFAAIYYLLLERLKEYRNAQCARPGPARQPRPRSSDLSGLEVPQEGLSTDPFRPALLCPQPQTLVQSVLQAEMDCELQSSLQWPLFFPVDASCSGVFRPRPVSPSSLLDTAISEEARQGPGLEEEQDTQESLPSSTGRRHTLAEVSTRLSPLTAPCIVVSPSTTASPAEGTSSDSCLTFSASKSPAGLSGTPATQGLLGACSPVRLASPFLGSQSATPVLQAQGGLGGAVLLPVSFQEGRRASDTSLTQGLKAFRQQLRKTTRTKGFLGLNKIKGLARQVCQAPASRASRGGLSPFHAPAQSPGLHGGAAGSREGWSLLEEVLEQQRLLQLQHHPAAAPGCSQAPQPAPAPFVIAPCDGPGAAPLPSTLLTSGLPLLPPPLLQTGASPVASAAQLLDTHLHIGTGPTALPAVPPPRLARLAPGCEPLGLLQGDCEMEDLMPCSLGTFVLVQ
Sequence of SIK2 (Q9H0K1 whole entry): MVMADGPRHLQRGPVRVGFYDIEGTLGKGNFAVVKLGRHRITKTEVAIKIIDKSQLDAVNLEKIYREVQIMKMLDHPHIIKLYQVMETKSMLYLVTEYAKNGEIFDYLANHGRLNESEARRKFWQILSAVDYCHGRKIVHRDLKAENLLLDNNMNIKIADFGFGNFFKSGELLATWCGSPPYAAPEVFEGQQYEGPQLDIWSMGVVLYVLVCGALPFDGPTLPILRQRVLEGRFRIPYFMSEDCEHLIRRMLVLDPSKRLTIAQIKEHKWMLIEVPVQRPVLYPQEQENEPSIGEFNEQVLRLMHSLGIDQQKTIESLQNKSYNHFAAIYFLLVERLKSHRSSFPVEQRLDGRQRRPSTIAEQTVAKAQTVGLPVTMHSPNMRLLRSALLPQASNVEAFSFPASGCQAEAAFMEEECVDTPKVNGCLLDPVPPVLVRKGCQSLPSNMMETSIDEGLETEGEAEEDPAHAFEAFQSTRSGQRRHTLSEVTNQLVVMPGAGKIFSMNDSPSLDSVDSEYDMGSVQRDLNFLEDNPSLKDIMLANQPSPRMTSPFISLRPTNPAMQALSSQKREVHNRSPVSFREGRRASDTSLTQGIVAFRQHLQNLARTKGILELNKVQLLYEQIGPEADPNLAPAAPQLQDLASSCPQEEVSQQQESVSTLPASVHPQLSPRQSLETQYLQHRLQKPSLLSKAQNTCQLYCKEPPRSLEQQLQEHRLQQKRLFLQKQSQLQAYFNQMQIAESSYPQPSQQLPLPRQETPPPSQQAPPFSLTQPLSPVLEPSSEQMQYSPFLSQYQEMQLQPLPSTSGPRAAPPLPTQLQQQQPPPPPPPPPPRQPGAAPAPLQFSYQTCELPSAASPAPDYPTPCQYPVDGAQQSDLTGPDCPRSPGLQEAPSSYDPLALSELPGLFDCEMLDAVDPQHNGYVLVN

IC50 (SIK1) [nM]	IC50 (SIK2) [nM]	IC50 (SIK3) [nM]	Compound
22	2.8	2.5	Cc1nnc(Nc2cc3ncn(-c4ccc(C(C)O)c(-n5nc(C#N)cc5C)n4)c3cc2F)s1 (stereo not drawn) [Example 385, 1-[6-[6-fluoro-5-[(5-methyl-1,3,4-thiadiazol-2-yl)amino]benzimidazol-1-yl]-3-(1-hydroxyethyl)-2-pyridyl]-5-methyl-pyrazole-3-carbonitrile]
1290	103	130	CC(O)c1ccc(-n2cnc3cc(OCCN4CCOCC4)ccc32)nc1Nc1ccccc1 (stereo not drawn) [Example 55, 1-[2-Anilino-6-[5-(2-morpholinoethoxy)benzimidazol-1-yl]-3-pyridyl]ethanol]
151	211	1030	Cc1ccc(Nc2ccc3ncn(-c4ccc(CO)c(-n5nc(C#N)cc5C)n4)c3c2)nn1 [Example 269, 5-Methyl-1-[3-methylol-6-[6-[(6-methylpyridazin-3-yl)amino]benzimidazol-1-yl]-2-pyridyl]pyrazole-3-carbonitrile; formic acid]
196	3.1	4	Cc1ccc(Nc2cc3ncn(-c4ccc(C(C)O)c(-n5nc(C#N)cc5C)n4)c3cc2OC2CCNC2)nn1 (stereo not drawn) [Example 192, 1-[3-(1-Hydroxyethyl)-6-[5-[(6-methylpyridazin-3-yl)amino]-6-pyrrolidin-3-yloxy-benzimidazol-1-yl]-2-pyridyl]-5-methyl-pyrazole-3-carbonitrile]
595	12.4	5.8	Cc1ccc(Nc2ccc3c(c2)ncn3-c2ccc(C(C)O)c(-c3cc(C4CC4)ncc3C)n2)nn1 (stereo not drawn) [Example 289, 1-[2-(2-cyclopropyl-5-methyl-4-pyridyl)-6-[5-[(6-methylpyridazin-3-yl)amino]benzimidazol-1-yl]-3-pyridyl]ethanol]
321	12.9	22.9	Cc1ccc(Nc2cc3ncn(-c4ccc(C(C)O)c(-n5nc(OC(F)F)cc5C)n4)c3cc2CC2COC2)nn1 (stereo not drawn) [Example 407, 1-[2-[3-(difluoromethoxy)-5-methyl-pyrazol-1-yl]-6-[5-[(6-methylpyridazin-3-yl)amino]-6-(oxetan-3-ylmethyl)benzimidazol-1-yl]-3-pyridyl]ethanol]
327	155	1140	COc1cc2ncn(-c3ccc(C(C)O)c(-c4ccc(F)cc4OC)n3)c2cc1OC (stereo not drawn) [Example 17, 1-(6-(5,6-Dimethoxy-1H-benzo[d]imidazol-1-yl)-2-(4-fluoro-2-methoxyphenyl)pyridin-3-yl)ethan-1-ol]
330	144	158	Cc1cc(C#N)nn1-c1nc(-n2cnc3cc(C#N)ccc32)ccc1C(C)O (stereo not drawn) [Example 263, 1-[6-(3-Cyano-5-methyl-pyrazol-1-yl)-5-(1-hydroxyethyl)-2-pyridyl]benzimidazole-5-carbonitrile]
1070	818	1910	Cc1ccc(Nc2ccc3c(c2)ncn3-c2ccc(C(C)O)c(N3CCCS3(=O)=O)n2)nn1 (stereo not drawn) [Example 85, 1-[2-(1,1-dioxo-1,2-thiazolidin-2-yl)-6-[5-[(6-methylpyridazin-3-yl)amino]benzimidazol-1-yl]-3-pyridyl]ethanol]
1570	20.2	3.2	Cc1ccc(Nc2ccc3c(c2)ncn3-c2ccc(C(C)O)c(-n3nc(C(F)F)nc3C)n2)nn1 (stereo not drawn) [Example 344, 1-[2-[3-(difluoromethyl)-5-methyl-1,2,4-triazol-1-yl]-6-[5-[(6-methylpyridazin-3-yl)amino]benzimidazol-1-yl]-3-pyridyl]ethanol]
472	3.9	1.2	Cc1ccc(Nc2ccc3c(c2)ncn3-c2ccc(C(C)O)c(-n3nc(C(F)F)cc3C)n2)nn1 (stereo not drawn) [Example 129, 1-[2-[3-(Difluoromethyl)-5-methyl-pyrazol-1-yl]-6-[5-[(6-methylpyridazin-3-yl)amino]benzimidazol-1-yl]-3-pyridyl]ethanol; formic acid]
361	90.2	26.5	Cc1cc(C#N)nn1-c1nc(-n2cnc3cc(NC4CCN(C)C(=O)C4)ccc32)ccc1C(C)O (stereo not drawn) [Example 155, 1-[3-(1-Hydroxyethyl)-6-[5-[(2-keto-1-methyl-4-piperidyl)amino]benzimidazol-1-yl]-2-pyridyl]-5-methyl-pyrazole-3-carbonitrile]
197	91.7	300	COc1cc2ncn(-c3ccc([C@H](C)O)c(-c4ccn(C)c(=O)c4)n3)c2cc1OC [Example 41, (S)-6-(5,6-Dimethoxy-1H-benzo[d]imidazol-1-yl)-3-(1-hydroxyethyl)-1′-methyl-[2,4′-bipyridin]-2′(1′H)-one]
1050	21.5	7.9	CCc1cc(-c2nc(-n3cnc4cc(Nc5ccc(C)nn5)ccc43)ccc2C(C)O)c(C)cn1 (stereo not drawn) [Example 283, 1-[2-(2-ethyl-5-methyl-4-pyridyl)-6-[5-[(6-methylpyridazin-3-yl)amino]benzimidazol-1-yl]-3-pyridyl]ethanol]
22	9.5	16.1	Cc1cc(C#N)nn1-c1nc(-n2cnc3cc(N4CCC[C@H]4C#N)ccc32)ccc1C(C)O (stereo partly drawn) [Example 342, 1-[6-[5-[(2S)-2-cyanopyrrolidin-1-yl]benzimidazol-1-yl]-3-(1-hydroxyethyl)-2-pyridyl]-5-methyl-pyrazole-3-carbonitrile]
42	7.9	5.1	1-[6-[6-fluoro-5-[(5-fluoro-6-methyl-3-pyridyl)amino] benzimidazol-1-yl]-3-(1-hydroxyethyl)-2-pyridyl]-5-methyl-pyrazole-3-carbonitrile [Example 389]
29	28.6	139	Cc1cc(C#N)nn1-c1nc(-n2cnc3ccc(-c4ccn(C)c(=O)n4)cc32)ccc1C(C)O (stereo not drawn) [Example 336, 1-[3-(1-hydroxyethyl)-6-[6-(1-methyl-2-oxo-pyrimidin-4-yl)benzimidazol-1-yl]-2-pyridyl]-5-methyl-pyrazole-3-carbonitrile]
535	473	761	COc1cc2ncn(-c3ccc(CO)c(N4CCCC4)n3)c2cc1OC [Example 27, (6-(5,6-Dimethoxy-1H-benzo[d]imidazol-1-yl)-2-(pyrrolidin-1-yl)pyridin-3-yl)methanol]
2830	94.5	17.5	Cc1ccc(Nc2ccc3c(c2)ncn3-c2ccc(C(C)O)c(N3CC(C)(C#N)C3)n2)nn1 (stereo not drawn) [Example 183, 1-[3-(1-Hydroxyethyl)-6-[5-[(6-methylpyridazin-3-yl)amino]benzimidazol-1-yl]-2-pyridyl]-3-methyl-azetidine-3-carbonitrile]
664	3.5	2	Cc1ccc(Nc2cc3ncn(-c4ccc([C@H](C)O)c(-n5nc(C(F)F)cc5C)n4)c3cc2F)nn1 [Example 301, (1S)-1-[2-[3-(difluoromethyl)-5-methyl-pyrazol-1-yl]-6-[6-fluoro-5-[(6-methylpyridazin-3-yl)amino]benzimidazol-1-yl]-3-pyridyl]ethanol]
250	79.6	85.6	Cc1cc(C#N)nn1-c1nc(-n2cnc3cc(N4CCCC4C(=O)N(C)C)ccc32)ccc1C(C)O (stereo not drawn) [Example 312, 1-[1-[6-(3-cyano-5-methyl-pyrazol-1-yl)-5-(1-hydroxyethyl)-2-pyridyl]benzimidazol-5-yl]-N,N-dimethyl-pyrrolidine-2-carboxamide]
970	849	4480	COc1cc2ncn(-c3ccc([C@@H](C)O)c(-c4ccc(F)cc4OC)n3)c2cc1OC [Example 22, (R)-1-(6-(5,6-Dimethoxy-1H-benzo[d]imidazol-1-yl)-2-(4-fluoro-2-methoxyphenyl)pyridin-3-yl)ethan-1-ol]
207	0.5	0.6	Cc1cc(C#N)nn1-c1nc(-n2cnc3cc(Nc4cc5c(nn4)CCC5)c(F)cc32)ccc1C(C)O (stereo not drawn) [Example 382, 1-[6-[5-(6,7-dihydro-5~{H}-cyclopenta[c]pyridazin-3-ylamino)-6-fluoro-benzimidazol-1-yl]-3-(1-hydroxyethyl)-2-pyridyl]-5-methyl-pyrazole-3-carbonitrile]
14	15.1	124	Cc1cc(C#N)nn1-c1nc(-n2cnc3ccc(N4CCC[C@H]4C#N)cc32)ccc1C(C)O (stereo partly drawn) [Example 341, 1-[6-[6-[(2S)-2-cyanopyrrolidin-1-yl]benzimidazol-1-yl]-3-(1-hydroxyethyl)-2-pyridyl]-5-methyl-pyrazole-3-carbonitrile]
53	2.7	2.2	COC1CN(C(=O)c2ccc(Nc3ccc4c(c3)ncn4-c3ccc(C(C)O)c(-n4nc(C#N)cc4C)n3)nn2)C1 (stereo not drawn) [Example 191, 1-[3-(1-Hydroxyethyl)-6-[5-[[6-(3-methoxyazetidine-1-carbonyl)pyridazin-3-yl]amino]benzimidazol-1-yl]-2-pyridyl]-5-methyl-pyrazole-3-carbonitrile]
7780	29.5	5.4	Cc1ccc(Nc2ccc3c(c2)ncn3-c2ccc(C(C)O)c(-c3cc(C#N)n(C)n3)n2)nn1 (stereo not drawn) [Example 246, 5-[3-(1-Hydroxyethyl)-6-[5-[(6-methylpyridazin-3-yl)amino]benzimidazol-1-yl]-2-pyridyl]-2-methyl-pyrazole-3-carbonitrile; formic acid]
